Results published in publication PMC6925188, “PBRM1 acts as a p53 lysine-acetylation reader to suppress renal tumor growth” (Nature Communications, 2019).

Tested on: ACHN, Caki-1 and Ren-01 cells
Assay: Immunoblot of p53 targets, kidney cancer cells with PBRM1 shRNA knockdown
Type: cell-based
Settings: 50 μM etoposide, Caki-1 and Ren-01
Protocol: Lysates were analyzed by immunoblots. c RCC4 cells with or without p53 KO were transfected with vector or Flag-PBRM1 at the indicated amounts. […] Cells were harvested for RT-qPCR (g) or ChIP followed by qPCR (h). […] Representative data is shown in i. Quantification of cell cycle phase is shown in j. Source data are provided as a Source Data file.
After washing with ice-cold PBS, cells were scraped on ice and centrifuged at 10,000 × g for 1 min at 4 °C. For immunoblot analysis, cell pellets were lysed in 1% SDS containing a protease inhibitor cocktail followed by sonication with a FB50 sonic dismembrator (Fisher Scientific) at 20% amplitude for 15 s twice. After centrifuging for 10 min at 14,000 × g, the supernatants were combined with 5X SDS loading buffer (5% mercaptoethanol, 0.05% Bromophenol blue, 30% glycerol, 10% SDS, 250 mM Tris-HCl (pH 6.8)), boiled for 5 min and used in SDS-PAGE. After standard western blot procedures, the blots were developed using the ImageQuant LAS 4000 (GE healthcare Life Sciences) or ChemiDoc MP Imaging System (Bio-rad) with HyGLO™ Chemiluminescent HRP Detection Reagent (E2500, Denville Scientific) or Immobilon™ Western Chemiluminescent HRP Substrate (WBKLS0500, Millipore). […]
the indicated times. Lysates were analyzed via immunoblots. b. […]
were analyzed by immunoblots. c. […]
Lysates were analyzed via immunoblots. e. […]
Lysates were analyzed via immunoblots. f, g, h. […]

## COc1cc([C@@H]2c3cc4c(cc3[C@@H](O[C@@H]3O[C@@H]5CO[C@@H](C)O[C@H]5[C@H](O)[C@H]3O)[C@H]3COC(=O)[C@H]23)OCO4)cc(OC)c1O [Etoposide]
  p21 induction by p53 with PBRM1 knockdown: significantly reduced p21 induction
